PMC9674830, “A glutamine-based single α-helix scaffold to target globular proteins” (Nature Communications, 2022)
Like-named read-outs stand apart in the source and are kept apart here. Starred links: 1 amine or outer side, 2 acyl side, 3 side chain; linkers in the order of their positions; H or OH if unused. Positions of bridges follow the written chain, without caps; N, C: chain ends. Non-standard residues stand in square brackets, D forms with d. Residues, ends and D or L forms follow the SMILES beside them. No end group written: not given here. ξ: configuration not given here. ξαMeNle(6-ylidene) = CC(CCCC=[*:3])(N[*:1])C(=O)[*:2]

How the values were obtained:
RAP74-CTD = biological target: T1, RAP74-CTD (Homo sapiens, UniProt P35269); experiment: NMR chemical shift perturbation titration of peptides into 15N RAP74-CTD (KD); format: binding; settings: 298 K, pH 7.4; for KD range in words: NMR CSP titration, RAP74-CTD 50 μM; for Kd: 1H-15N BEST-TROSY CSP titration, 15N RAP74-CTD 50 μM, read-out: NMR-derived KD
T1 construct: spanning residues 450-517; His6-MBP (with TEV site) (N, cleaved yes); made in house; host or cells: E. coli Rosetta (DE3)pLysS
T1 sequence (P35269 450-517): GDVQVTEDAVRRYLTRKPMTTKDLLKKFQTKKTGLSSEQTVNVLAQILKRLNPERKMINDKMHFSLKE
Experimental: Recombinant samples with ^15N isotope enrichment of the C-terminal domain of subunit 1 of the general transcription regulator TFIIF (RAP74-CTD), spanning residues 450-517, were obtained as described previously. A codon-optimized synthetic gene cloned in a pDONR221 vector was obtained from GeneArt (Thermo Fisher Scientific, Waltham, MA, USA) and subcloned into a pDEST-His6MBP vector obtained from Addgene. Rosetta (DE3)pLysS competent cells (Novagen, Merck KGaA, Darmstadt, Germany) were grown in MOPS medium with ^15NH4Cl as the only nitrogen source (310 K, induction at OD600 = 0.7, 1 mM IPTG, harvesting 3 h after induction). Soluble fractions of cell lysates from sonication in lysis buffer (50 mM Tris-HCl, 1 M NaCl, 10 mM imidazole, pH 8.0) were purified by IMAC, and fractions containing the His6MBP-TEV-RAP74-CTD fusion were dialyzed at 277 K overnight against cleavage buffer (50 mM Tris-HCl, 200 mM NaCl, 0.5 mM EDTA, pH 8.0) in the presence of TEV protease (50 μg/mL). A second IMAC step was performed and the flow-through containing the RAP-CTD was loaded onto a HiTrap SP HP cation exchange column followed by a size exclusion chromatography step on a Superdex 75 GL 10/300 column equilibrated with NMR buffer (20 mM sodium phosphate, 0.1% trifluoroacetic acid, pH 7.4), both mounted in an Äkta Purifier System (GE Healthcare, Chicago, IL, USA). The sample was concentrated to 100 μM using an Amicon Ultra 15 mL centrifugal filter (Merck KGaA, Darmstadt, Germany).
Before the experiment, both the protein and the peptide were dialyzed (277 K, two dialysis steps) in the same preparation of NMR buffer (20 mM sodium phosphate, 0.1% trifluoroacetic acid, pH 7.4), using a Pur-A-Lyzer (Sigma-Aldrich, Burlington, MA, USA) and a Micro Float-A-Lyzer (Spectrum Laboratories, San Francisco, CA, USA) respectively. The chemical shift assignment of RAP74-CTD was reported previously (BMRB code 27288). Averaged ^1H and ^15N chemical shift perturbations (CSPs) were calculated as:2 ΔδAV=(Δδ1H)^2+1/5Δδ15N^2
Dissociation constants, KD, and averaged CSP amplitude, Δδmax, for δ, δstpl, γ and γstpl peptide binding to RAP74-CTD were obtained by a global fitting (nonlinear regression) of the 10% peaks with the largest averaged CSPs to the following single-site binding model (1:1 stoichiometry):3 Δδ=Δδmax([Protein]+[Peptide]+KD)−([Protein]+[Peptide]+KD)^2−4[Protein][Peptide]/2[Protein]

[1] = Peptide stability in human serum; format: in vitro ADME; settings: for peptide in human serum over time, mean / remaining at 0.08 h, 300 μM / remaining at 0.25 h, 300 μM / remaining at 0.5 h, 300 μM / remaining at 1 h, 300 μM / remaining at 4 h, 300 μM / remaining at 6 h, 300 μM / remaining at 8 h, 300 μM / remaining at 24 h, 300 μM: SD, human serum, mean; for peptide in human serum over time, mean: in % (unit assumed); for remaining at 0.08 h, 300 μM: Time 0.08 (time unit inferred); for remaining at 0.08 h, 300 μM / remaining at 0.25 h, 300 μM / remaining at 0.5 h, 300 μM / remaining at 1 h, 300 μM / remaining at 4 h, 300 μM / remaining at 6 h, 300 μM / remaining at 8 h, 300 μM / remaining at 24 h, 300 μM: read-out: peptide in human serum over time, mean; for remaining at 0.25 h, 300 μM: Time 0.25 (time unit inferred); for remaining at 0.5 h, 300 μM: Time 0.50 (time unit inferred); for remaining at 1 h, 300 μM: Time 1.00 (time unit inferred); for remaining at 4 h, 300 μM: Time 4.00 (time unit inferred); for remaining at 6 h, 300 μM: Time 6.00 (time unit inferred); for remaining at 8 h, 300 μM: Time 8.00 (time unit inferred); for remaining at 24 h, 300 μM: Time 24.00 (time unit inferred); for half-life at 300 μM: human serum (Sigma-Aldrich), 1.5 mM peptide in 20 mM sodium phosphate pH 7.4 diluted 1:9, final 300 μM, 310 K, 24 h, methanol precipitation, HPLC peak area of intact peptide vs t = 0, three independent replicates
Experimental: Supplementary Figure 2 | Stability in human serum and internalization in human cells of peptides (P3-7)3 and (P3-7)3 Ctrl. a Human serum stability assay of peptides (P3-7)3, (P3-7)3 Ctrl and Angiopep-2 (sequence:
, a positive control for this assay 1), measured at increasing time points by monitoring the area of the HPLC peak corresponding to the intact peptide over the area of the same peak at t = […]
Peptide stability in human serum
1.5 mM solutions of the P(3-7)3, P(3-7)3 Ctrl and Angiopep-2 peptides were prepared as detailed above in 20 mM sodium phosphate, pH 7.4 and diluted in human serum (Sigma-Aldrich, Burlington, MA, USA) (1:9 dilution) to a final concentration of 300 μM. The incubation was performed at 310 K for 24 h, taking aliquots of 50 μL at several time points.
These samples were treated with 400 μL of methanol to precipitate the serum proteins and centrifuged for 30 min at 277 K. The supernatant was filtered and analyzed by HPLC to calculate the percentage of intact peptide in the sample. HPLC chromatograms were obtained on an Agilent 1260 Infinity II system with a PDA detector, with an Agilent Poroshell 120-EC18 (50 x 3 mm x 2.7 μm) column. The flow rate was 1 mL min-1 and acetonitrile (1% TFA) and water (1% TFA) were used as solvents, with 4 minute linear gradients from 5 % to 95 % of acetonitrile thermostated at 313 K. […]

[2] = Time 0.00 (time unit not given)

**Q.** For `CC(C)C[C@@H]1NC(=O)[C@H](CCC(N)=O)NC(=O)C(C)(NC(=O)[C@H](CCC(=O)O)NC(=O)[C@H](CCC(N)=O)NC(=O)[C@H](C)NC(=O)[C@H](C)NC(=O)[C@H](C)NC(=O)[C@H](C)NC(=O)[C@H](CO)NC(=O)[C@H](C)NC(=O)CNC(=O)[C@@H]2CCCN2C(=O)[C@H](CCCCN)NC(=O)[C@@H](N)CCCCN)CCCC=CCCCC(C)(C(=O)N[C@@H](CC(C)C)C(=O)N[C@@H](C)C(=O)N[C@@H](CCC(N)=O)C(=O)N[C@@H](CCC(=O)O)C(=O)N[C@@H](CC(C)C)C(=O)N[C@@H](CCC(N)=O)C(=O)N[C@@H](C)C(=O)N[C@@H](C)C(=O)N[C@@H](CCC(N)=O)C(=O)N[C@@H](C)C(=O)N[C@@H](C)C(=O)N[C@@H](CCCCN)C(=O)N[C@@H](CCCCN)C(=O)N[C@@H](Cc2ccc(O)cc2)C(=O)O)NC(=O)[C@H](C)NC1=O` (stereo partly drawn) [δStpl] (H-KKPGASAAAAQE[ξαMeNle(6-ylidene)]QLA[ξαMeNle(6-ylidene)]LAQELQAAQAAKKY-OH; staple 13-17; N-terminus and C-terminus assumed), which “KD range in words” value (RAP74-CTD) is on record?
**A.** millimolar range

**Q.** Which “KD range in words” value (RAP74-CTD) does the source give for KKPGASLSWLQLFQEEQAAQAAKK [γ] here?
**A.** mid-micromolar range

**Q.** For `CC(C)C[C@@H]1NC(=O)[C@H](CCC(N)=O)NC(=O)C(C)(NC(=O)[C@H](Cc2c[nH]c3ccccc23)NC(=O)[C@H](CO)NC(=O)[C@H](C)NC(=O)[C@H](CO)NC(=O)[C@H](C)NC(=O)CNC(=O)[C@@H]2CCCN2C(=O)[C@H](CCCCN)NC(=O)[C@@H](N)CCCCN)CCCC=CCCCC(C)(C(=O)N[C@@H](CCC(=O)O)C(=O)N[C@@H](CCC(=O)O)C(=O)N[C@@H](CCC(N)=O)C(=O)N[C@@H](C)C(=O)N[C@@H](C)C(=O)N[C@@H](CCC(N)=O)C(=O)N[C@@H](C)C(=O)N[C@@H](C)C(=O)N[C@@H](CCCCN)C(=O)N[C@@H](CCCCN)C(=O)O)NC(=O)[C@H](Cc2ccccc2)NC1=O` (stereo partly drawn) [γStpl], which “KD range in words” value (RAP74-CTD) is on record?
**A.** mid-micromolar range

**Q.** For KKPGASAAAAQEAQLAQLAQELQAAQAAKKY [δctrl], which Kd (RAP74-CTD; lower bound) is on record?
**A.** > 1 mM

**Q.** What does the source list for “KKPGASAAAAQAAQAAQAAQAAQAAQAAKKY [(P3-7)3 Ctrl]”?
**A.** peptide in human serum over time, mean [1, 2]: 100.26; remaining at 0.08 h, 300 μM [1]: 96.4%; remaining at 0.25 h, 300 μM [1]: 97.3%; remaining at 0.5 h, 300 μM [1]: 114%; remaining at 1 h, 300 μM [1]: 115%; remaining at 4 h, 300 μM [1]: 94.5%; remaining at 6 h, 300 μM [1]: 115%; remaining at 8 h, 300 μM [1]: 98.4%; remaining at 24 h, 300 μM [1]: 110%; half-life at 300 μM [1]: > 1440 min

**Q.** For KKPGASASWAQLFQEEQAAQAAKK [γCtrl], which Kd (RAP74-CTD; lower bound) is on record?
**A.** > 1 mM

**Q.** Which Kd (RAP74-CTD; 20 mM sodium phosphate, 0.1% TFA, global fit of 10% peaks with largest CSPs, 1:1 model, error by Monte-Carlo) does the source give for KKPGASLAALQELQLLQLLQELQAAQAAKKY [δ] here?
**A.** 0.131 ± 0.02 mM

**Q.** Which Kd (RAP74-CTD; lower bound) does the source give for “SAAASSSWHTLFTAEEGQLYG [WHTLF, reference compound]” here?
**A.** > 1 mM

**Q.** What does the source list for `C[C@@H](O)[C@H](N)C(=O)N[C@@H](Cc1ccccc1)C(=O)N[C@@H](Cc1ccccc1)C(=O)N[C@@H](Cc1ccc(O)cc1)C(=O)NCC(=O)NCC(=O)N[C@@H](CO)C(=O)N[C@@H](CCCNC(=N)N)C(=O)NCC(=O)N[C@@H](CCCCN)C(=O)N[C@@H](CCCNC(=N)N)C(=O)N[C@@H](CC(N)=O)C(=O)N[C@@H](CC(N)=O)C(=O)N[C@@H](Cc1ccccc1)C(=O)N[C@@H](CCCCN)C(=O)N[C@H](C(=O)N[C@@H](CCC(=O)O)C(=O)N[C@@H](CCC(=O)O)C(=O)N[C@@H](Cc1ccc(O)cc1)C(=O)O)[C@@H](C)O` [Angiopep-2, reference compound]?
**A.** peptide in human serum over time, mean [1, 2]: 100.01; remaining at 0.08 h, 300 μM [1]: 52%; remaining at 0.25 h, 300 μM [1]: 72.6%; remaining at 0.5 h, 300 μM [1]: 32.2%; remaining at 1 h, 300 μM [1]: 73.3%; remaining at 4 h, 300 μM [1]: 24.9%; remaining at 6 h, 300 μM [1]: 16.7%; remaining at 8 h, 300 μM [1]: 18.3%; remaining at 24 h, 300 μM [1]: 22.5%

**Q.** Which remaining at 0.08 h, 300 μM [1] does the source give for “KKPGASLAALQALQALQALQALQAAQAAKKY [(P3-7)3]” here?
**A.** 113%

**Q.** And the remaining at 0.25 h, 300 μM [1]?
**A.** 120%

**Q.** And the “peptide in human serum over time, mean” value ([1]; Time 0.50 (time unit not given))?
**A.** 137.50

**Q.** And the “peptide in human serum over time, mean” value ([1]; Time 1.00 (time unit not given))?
**A.** 122.97

**Q.** And the “peptide in human serum over time, mean” value ([1]; Time 4.00 (time unit not given))?
**A.** 139.36

**Q.** And the remaining at 6 h, 300 μM [1]?
**A.** 103%

**Q.** And the remaining at 8 h, 300 μM [1]?
**A.** 86.3%

**Q.** And the “peptide in human serum over time, mean” value ([1]; Time 24.00 (time unit not given))?
**A.** 128.28

**Q.** And the half-life at 300 μM [1]?
**A.** > 1440 min

**Q.** What about the Kd (RAP74-CTD; lower bound) of the same compound?
**A.** > 1 mM
